Assay results as given in ChEMBL document CHEMBL1150959 (J Nat Prod, 1998).
pIC50: −log10 of the molar value. Activity calls are given as the source filed them. No cut-off for these calls is given here.

Experiments:
[1] = target: Prostaglandin G/H synthase 1 (Bos taurus) (UniProt O62698); assay: Inhibition of COX1-catalyzed prostaglandin biosynthesis at 200 ug/ml without preincubation; settings: TDE = time-dependent effect
[2] = Ratio of IC50 for COX2 to IC50 for COX1
[3] = target: Prostaglandin G/H synthase 1 (Bos taurus) (UniProt O62698); assay: Inhibition of COX1-catalyzed prostaglandin biosynthesis 10 mins of preincubation
[4] = target: Prostaglandin G/H synthase 1 (Bos taurus) (UniProt O62698); assay: Inhibition of COX1-catalyzed prostaglandin biosynthesis at 100 ug/ml without preincubation

Prostaglandin G/H synthase 1 (Bos taurus), sequence (O62698 whole entry, looked up): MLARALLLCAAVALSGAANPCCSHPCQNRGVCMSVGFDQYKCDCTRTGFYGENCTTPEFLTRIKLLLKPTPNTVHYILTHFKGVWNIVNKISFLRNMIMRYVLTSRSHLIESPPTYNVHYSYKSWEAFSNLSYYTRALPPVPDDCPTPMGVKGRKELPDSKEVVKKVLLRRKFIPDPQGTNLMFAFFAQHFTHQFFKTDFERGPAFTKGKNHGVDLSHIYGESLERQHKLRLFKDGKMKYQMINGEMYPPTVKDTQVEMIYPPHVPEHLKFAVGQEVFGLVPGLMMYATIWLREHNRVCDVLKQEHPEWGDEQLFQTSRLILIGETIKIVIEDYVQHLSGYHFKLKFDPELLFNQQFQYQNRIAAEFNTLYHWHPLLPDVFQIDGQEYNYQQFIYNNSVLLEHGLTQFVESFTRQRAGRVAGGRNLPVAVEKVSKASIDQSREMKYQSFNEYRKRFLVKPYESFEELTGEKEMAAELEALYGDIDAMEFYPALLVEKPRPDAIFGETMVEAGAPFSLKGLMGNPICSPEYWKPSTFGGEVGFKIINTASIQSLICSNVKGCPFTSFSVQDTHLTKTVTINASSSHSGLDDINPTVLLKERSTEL

With `C[C@H]1[C@H](C)CC[C@]2(C(=O)O)CC[C@]3(C)C(=CC[C@@H]4[C@@]5(C)CC[C@H](O)C(C)(C)[C@@H]5CC[C@]43C)[C@H]12` [URSOLIC ACID] the Activity [1] was “tde”, the Ratio IC50 [2] was 0.6 and the pIC50 [3] was 3.68. The Activity [4] was “Active”.
